Experimental data published in publication PMC5876388 (Scientific Reports, 2018).

Legend:
HES1 [1] = assay: Western blot in assay cells; assay type: cell-based; conditions: LS174T Notch cells, 12 h
Procedure: (§1) After another 12 h incubation with 50 ng/mL Dox, and cells were washed with PBS. Medium was changed to fresh medium with 2 and incubated for 12 h. […] (C–F) Relative protein levels analyzed by densitometry. […] P values were analyzed by Student’s t test.
(§2) Before another 12 h incubation, 50 ng/mL of doxycycline was added into each dish. Then, medium was changed to fresh medium with each compound. After 12 h incubation, cells were washed with PBS (500 μL) twice and then cells were collected by scraping. Using lysis buffer (20 mM Tris-HCl pH 7.4, 150 mM NaCl, 0.5% sodium deoxycholate, 10 mM EDTA, 1 mM sodium orthovanadate, and 0.1 mM NaF) containing a 1% […] inhibiotor cocktail (Nacalai Tesque, Tokyo, Japan), protein lysate was prepared. Protein lysates were separated by a 7.5%, 10%, 12.5% and 15% SDS-PAGE electrophoresis. Proteins were then transferred to a PVDF membrane (Bio-Rad Laboratories, Inc. Hercules, USA) electrophoretically. The membrane was incubated for 1 h with TBST (10 mM Tris-HCl pH 7.4, 100 mM NaCl and 0.1% Tween 20) containing 5% skimmed milk. […]

HES5 = assay: Western blot in assay cells; assay type: cell-based; conditions: LS174T Notch cells, 12 h
Procedure: as §1, §2

PS1 = assay: Western blot in HPB-ALL cells; assay type: cell-based, human; conditions: 72 h
Procedure: (§3) (A) Schematic representation of γ-secretase complex. γ-Secretase is composed of four membrane proteins: presenilin1 (PS1), nicastrin (NCT), anterior pharynx defective 1 (APH-1) and presenilin enhancer 2 (PEN-2). […] (E,F) Relative protein levels of nicastrin mature and immature analyzed by densitometry. […] P values were analyzed by Student’s t test.
(§4) Media also contained different concentrations of compound. Cells were incubated at 37 °C for 72 h (12 h, when treatment with MG132). After incubation, cells were centrifuged and collected, and then washed with 500 μL of PBS twice. To prepare cell lysate and confirm protein expression levels, the same method as described above was used.

APH-1 = assay: Western blot in HPB-ALL cells; assay type: cell-based, human; conditions: 72 h
Procedure: as §3, §4

PEN-2 = assay: Western blot in HPB-ALL cells; assay type: cell-based, human; conditions: 72 h
Procedure: as §3, §4

NICD [2] = assay: Western blot in HPB-ALL cells; assay type: cell-based, human; conditions: 10 μM, 72 h
Procedure: (§5) HPB-ALL cells (1 × 10^4 cells per well) were incubated in 96-well black plates at 37 °C for 72 h. Media also contained different concentrations of compound. After incubation, AlamarBlue was added 10 μL per well. After incubation for 4 h, using a fluorescence plate reader, fluorescence was measured and cell viability was determined. Data are presented as the mean with SD from three independent experiments. […] The effect on protein expression was analyzed by Western blotting. β-Actin was used as internal control. (D,E) Relative protein levels of NICD and HES1 analyzed by densitometry. Data are presented as the mean with SD from three independent experiments. *P < 0.05 is considered statistically significant. P values were analyzed by Student’s t test.
as §4, with “HPB-ALL cells were incubated in a 6 cm dish in 5 mL of RPMI-1640 medium with 10% FBS, Streptomycin (100 μg/mL) and Penicillin (100 unit/mL) at 5 × 10^5 cells per dish (1 × 10^6 cells per dish, when treatment with MG132). Media” for “Media”

HES1 [3] = assay: Western blot in HPB-ALL cells; assay type: cell-based, human; conditions: 10 μM, 72 h
Procedure: as §5
as §4, with “HPB-ALL cells were incubated in a 6 cm dish in 5 mL of RPMI-1640 medium with 10% FBS, Streptomycin (100 μg/mL) and Penicillin (100 unit/mL) at 5 × 10^5 cells per dish (1 × 10^6 cells per dish, when treatment with MG132). Media” for “Media”

NICD [4] = assay: Western blot in assay cells; assay type: cell-based, mouse; conditions: LS174T Notch cells, 12 h
Procedure: as §1, §2

Notch1(1704–2531) = assay: Western blot in assay cells; assay type: cell-based, mouse; conditions: LS174T Notch cells, 12 h
Procedure: as §1, §2

[5] = Cytotoxicity test, AlamarBlue; conditions: human, HPB-ALL cells
Procedure: as §5
HPB-ALL cells (1 × 10^4 cells per well) were incubated in 96-well black plates in 100 μL of RPMI-1640 medium with 10% FBS, Streptomycin (100 μg/mL) and Penicillin (100 unit/mL). Media also contained different concentrations of compound. Cells were incubated at 37 °C for 72 h. After incubation, AlamarBlue (00–025, DAL1025; Thermo Fisher Scientific Inc., Waltham, USA) was added 10 μL per well. After incubation for 4 h, using a fluorescence plate reader (Thermo Fisher Scientific Inc., Waltham, USA), fluorescence was measured and cell viability was determined.

SMILES: COc1c(O)cc2oc3cc(O)c(CC=C(C)C)c(O)c3c(=O)c2c1C/C=C(\C)CCC=C(C)C [Compound 2, cowanin]
- expression of HES1 (HES1 [1]): reduced
- expression of HES5 (HES5): reduced
- expression of PS1 (PS1): didn’t affect
- expression of APH-1 (APH-1): didn’t affect
- expression of PEN-2 (PEN-2): didn’t affect
- expression of NICD (NICD [2]): reduced
- expression of HES1 (HES1 [3]): reduced
- NICD level (NICD [4]): reduced dose dependently
- expression of Notch1(1704–2531) (Notch1(1704–2531)): increased
- IC50 at 72 h [5]: 7.5 µM
- viability at 12 h, 15 µM [5]: 98%
